Results taken from US10294202B2, “Pyrrolidinones as herbicides” (FMC Corporation, priority 2013, dated 2019).

Columns and labels:
[1] = tested on: kochia; assay: Test E preemergence herbicide test; format: in vivo, Kochia scoparia; design: key: 0 = no effect, 100 = complete control
Text: (§1) Seeds of plant species selected from corn (Zea mays), soybean (Glycine max), velvetleaf (Abutilon theophrasti), lambsquarters (Chenopodium album), wild poinsettia (Euphorbia heterophylla), pigweed, palmer (palmer pigweed, Amaranthus palmeri), waterhemp (common waterhemp, Amaranthus rudis), surinam grass (Brachiaria decumbens), crabgrass, large (large crabgrass, Digitaria sanguinalis), crabgrass, Brazil (Brazilian crabgrass, Digitaria horizontalis), panicum, fall (fall panicum, Panicum dichotomiflorum), foxtail, giant (giant foxtail, Setaria faberii), foxtail, green (green foxtail, Setaria viridis), goosegrass (Eleusine indica), johnsongrass (Sorghum halepense), ragweed (common ragweed, Ambrosia elatior), barnyardgrass (Echinochloa crus-galli), sandbur (southern sandbur, Cenchrus echinatus), arrowleaf […] rhombifolia), ryegrass, Italian (Italian ryegrass, Lolium multiflorum), dayflower, VA (Virginia dayflower, Commelina virginica), field bindweed (Convolvulus arvensis), morningglory (Ipomoea coccinea), nightshade (eastern black nightshade, Solanum ptycanthum), kochia (Kochia scoparia), nutsedge, yellow (yellow nutsedge, Cyperus esculentus), cocklebur (common cocklebur, Xanthium strumarium), smartweed (ladysthumb smartweed, Polygonum Persicaria) and beggarticks (hairy beggarticks, Bidens pilosa), were planted into a silt loam soil and treated preemergence with test chemicals formulated in a non-phytotoxic solvent mixture which included a surfactant. Treated plants and controls were maintained in a greenhouse for 21 days, after which time all species were compared to controls and visually evaluated. Plant response ratings, summarized in Table E, are based on a scale of 0 to 100 where 0 is no effect and 100 is complete control. A dash (-) response means no test result.

[2] = tested on: panicum, fall; assay: Test E preemergence herbicide test; format: in vivo, Panicum dichotomiflorum; design: key: 0 = no effect, 100 = complete control
Text: as §1

[3] = tested on: wheat, spring; assay: Test D pre-/postemergence herbicide test; format: in vivo, Triticum aestivum; conditions: for Plant response rating, Wheat, Spring: Preemergence, scale 0 to 100 (0 no effect, 100 complete control); for Plant response rating: Postemergence, Wheat, Spring, scale 0 to 100
In short: (§2)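 Postemergence sprays were made on plants at the 1- to 4-leaf stage in peat-based medium, and preemergence sprays on seeds planted in silt loam. The formulation was a non-phytotoxic solvent mixture containing surfactant. Plants were compared with controls after 7 to 21 days and rated visually on a 0–100 scale.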

[4] = tested on: galium; assay: Test D pre-/postemergence herbicide test; format: in vivo, Galium aparine; conditions: for Plant response rating, Galium: scale 0 to 100 (0 no effect, 100 complete control); for Plant response rating: Galium, scale 0 to 100
In short: as §2

[5] = tested on: bermudagrass; assay: Test C pre-/postemergence herbicide test; format: in vivo, Cynodon dactylon
Text: Seeds of plant species selected from blackgrass (Alopecurus myosuroides), ryegrass, Italian (Italian ryegrass, Lolium multiflorum), wheat (winter wheat, Triticum aestivum), galium (catchweed bedstraw, Galium aparine), corn (Zea mays), crabgrass, large (large crabgrass, Digitaria sanguinalis), foxtail, giant (giant foxtail, Setaria faberii), johnsongrass (Sorghum halepense), lambsquarters (Chenopodium album), morningglory (Ipomoea coccinea), nutsedge, yellow (yellow nutsedge, Cyperus esculentus), pigweed (Amaranthus retroflexus), ragweed (common ragweed, Ambrosia elatior), soybean (Glycine max), barnyardgrass (Echinochloa crus-galli), oilseed rape (Brassica napus), waterhemp (common waterhemp, Amaranthus rudis), kochia (Kochia scoparia), oat, wild (wild oat, Avena fatua), surinam grass (Brachiaria decumbens), foxtail, green (green foxtail, Setaria viridis), goosegrass (Eleusine indica), bromegrass, downy (downy bromegrass, Bromus tectorum), nightshade (eastern black nightshade, Solanum ptycanthum), cocklebur (common cocklebur, Xanthium strumarium), cupgrass, woolly (woolly cupgrass, Eriochloa villosa), bermudagrass (Cynodon dactylon), sunflower, (common oilseed sunflower, Helianthus annuus), Russian thistle (Salsola kali) and velvetleaf (Abutilon theophrasti) were planted into a blend of loam soil and sand and treated preemergence with test chemicals formulated in a non-phytotoxic solvent mixture which included a surfactant. At the same time, plants selected from these crop and weed species and also barley (winter barley, Hordeum vulgare), […]), chickweed (common chickweed, Stellaria media), deadnettle (henbit deadnettle, Lamium amplexicaule), and canarygrass (littleseed canarygrass, Phalaris minor) were planted in pots containing Redi-Earth® planting medium (Scotts Company, 14111 Scottslawn Road, Marysville, Ohio 43041) comprising spaghnum peat moss, vermiculite, wetting agent and starter nutrients and treated with postemergence applications of test chemicals formulated in the same manner. Plants ranged in height from 2 to 18 cm (1- to 4-leaf stage) for postemergence treatments. Treated plants and controls were maintained in a greenhouse for 13 to 15 days, after which time all species were compared to controls and visually evaluated. Plant response ratings, summarized in Table C, are based on a scale of 0 to 100 where 0 is no effect and 100 is complete control. A dash (-) response means no test result.

[6] = Preemergence, 62 g ai/ha, scale 0 to 100
[7] = Preemergence, 125 g ai/ha, scale 0 to 100 (0 no effect, 100 complete control)
[8] = Preemergence, 31 g ai/ha, scale 0 to 100 (0 no effect, 100 complete control)
[9] = Preemergence, 250 g ai/ha, scale 0 to 100 (0 no effect, 100 complete control)

SMILES | Plant response rating, Kochia ([1]; 31 g ai/ha) | Plant response rating, Kochia ([1]; 62 g ai/ha) | Plant response rating, Kochia ([1]; 125 g ai/ha) | Plant response rating, Kochia ([1]; 250 g ai/ha) | Plant response rating, Panicum, Fall ([2]; 31 g ai/ha) | Plant response rating, Panicum, Fall ([2]; 62 g ai/ha) | Plant response rating, Panicum, Fall ([2]; 125 g ai/ha) | Plant response rating, Panicum, Fall ([2]; 250 g ai/ha) | Plant response rating, Wheat, Spring ([3]; 62 g ai/ha) | Plant response rating, Wheat, Spring ([3]; 125 g ai/ha) | Plant response rating, Wheat, Spring ([3]; 31 g ai/ha) | Plant response rating, Wheat, Spring ([3]; 250 g ai/ha) | Plant response rating, Galium ([4]; Preemergence, 62 g ai/ha) | Plant response rating, Galium ([4]; Preemergence, 31 g ai/ha) | Plant response rating ([4]; Preemergence, 250 g ai/ha) | Plant response rating ([3]; 31 g ai/ha) | Plant response rating ([3]; 62 g ai/ha) | Plant response rating ([3]; 125 g ai/ha) | Plant response rating ([3]; 250 g ai/ha) | Plant response rating ([4]; Postemergence, 31 g ai/ha) | also measured
O=C1NCC(c2ccc(OC(F)F)cc2)C1C(=O)Nc1cccc(F)c1F (racemic) [Compound 350] | 0 | 40 | 75 | 90 | 0 | 0 | 0 | 0 |  |  |  |  |  |  |  |  |  |  |  |  | 
O=C1NC[C@H](c2cccc(C(F)(F)F)c2)[C@H]1C(=O)Nc1cccc(F)c1F [Compound 206] | 0 | 0 | 50 | 80 | 75 | 98 | 98 | 98 | 25 | 45 | 10 | 65 | 40 | 10 | 80 |  |  |  |  |  | Plant response rating, Galium ([4]; Preemergence, 125 g ai/ha): 50
O=C1NC[C@H](c2cccc(C(F)(F)F)c2)[C@H]1C(=O)Nc1ccccc1F [Compound 204, (3R,4S)—N-(2-fluorophenyl)-2-oxo-4-[3-(trifluoromethyl)phenyl]-3-pyrrolidinecarboxamide] | 0 | 0 | 90 | 40 | 0 | 0 | 75 | 75 | 0 | 25 | 0 | 30 | 10 | 0 | 25 |  |  |  |  |  | Plant response rating, Galium ([4]; Preemergence, 125 g ai/ha): 10
O=C1NCC(c2ccc(C(F)(F)F)cc2)C1C(=O)Nc1cccc(F)c1F (stereo not shown) [Compound 80, N-(2,3-difluorophenyl)-2-oxo-4-[4-(trifluoromethyl)phenyl]-3-pyrrolidinecarboxamide] | 60 | 60 | 80 | 90 | 0 | 0 | 0 | 0 | 10 | 10 | 0 | 20 | 45 | 0 | 75 | 0 | 0 | 0 | 0 | 20 | Plant response rating ([4]; Postemergence, 62 g ai/ha): 45; Plant response rating ([4]; Postemergence, 125 g ai/ha): 55; Plant response rating ([4]; Postemergence, 250 g ai/ha): 60; Plant response rating ([4]; Preemergence, 125 g ai/ha): 65; Plant response rating, Panicum, Fall ([2]; 16 g ai/ha): 0
O=C1NCC(c2ccc(F)c(F)c2)C1C(=O)Nc1cccc(F)c1F (stereo not shown) [Compound 17, N-(2,3-difluorophenyl)-4-(3,4-difluorophenyl)-2-oxo-3-pyrrolidinecarboxamide] | 0 | 0 | 25 | 50 | 0 | 0 | 0 | 0 |  |  |  |  |  |  |  | 0 | 0 | 0 | 0 | 0 | Plant response rating ([3]; 16 g ai/ha): 0; Plant response rating, Bermudagrass ([5]; Postemergence, 31 g ai/ha, scale 0 (no effect) to 100 (complete control)): 0; Plant response rating, Bermudagrass ([5]; Postemergence, 62 g ai/ha, scale 0 to 100 (0 no effect, 100 complete control)): 0; Plant response rating, Bermudagrass ([5]; Postemergence, 125 g ai/ha, scale 0 to 100 (0 no effect, 100 complete control)): 0; Plant response rating, Bermudagrass ([5]; Postemergence, 250 g ai/ha, scale 0 to 100 (0 no effect, 100 complete control)): 0; Plant response rating, Bermudagrass [5, 6]: 45; Plant response rating, Bermudagrass [5, 7]: 85; Bermudagrass plant response rating [5, 8]: 0; Plant response rating, Bermudagrass [5, 9]: 90; Plant response rating ([4]; Postemergence, 16 g ai/ha): 0; Plant response rating ([4]; Postemergence, 62 g ai/ha): 0; Plant response rating ([4]; Postemergence, 125 g ai/ha): 10; Plant response rating ([4]; Postemergence, 250 g ai/ha): 30; Plant response rating, Kochia ([1]; 16 g ai/ha): 0; Plant response rating, Panicum, Fall ([2]; 16 g ai/ha): 0
O=C1NCC(c2ccc(Cl)c(Cl)c2)C1C(=O)Nc1ccccc1F (racemic) [Compound 14] | 0 | 0 | 0 | 0 | 0 | 0 |  | 40 |  |  |  |  |  |  |  |  |  |  |  |  | Plant response rating, Bermudagrass [5, 6]: 90; Plant response rating, Bermudagrass [5, 7]: 95; Bermudagrass plant response rating [5, 8]: 75; Plant response rating, Bermudagrass [5, 9]: 95; Plant response rating, Kochia ([1]; 16 g ai/ha): 0; Plant response rating, Panicum, Fall ([2]; 16 g ai/ha): 0
O=C1NCC(c2ccc(C(F)(F)F)cc2)C1C(=O)Nc1cccc(F)c1F (racemic) [Compound 202] | 95 | 95 | 95 | 98 | 0 | 0 | 50 | 85 | 5 | 25 | 0 | 35 | 70 | 75 | 85 | 0 | 0 | 0 | 5 | 60 | Plant response rating ([4]; Postemergence, 62 g ai/ha): 70; Plant response rating ([4]; Postemergence, 125 g ai/ha): 70; Plant response rating ([4]; Postemergence, 250 g ai/ha): 70; Plant response rating ([4]; Preemergence, 125 g ai/ha): 80
